Values of other authors as cited in patent publication US20200061053A1, “PHARMACEUTICAL COMPOSITION AND METHOD FOR ACUTE ON CHRONIC LIVER FAILURE AND RELATED LIVER DISEASES” (priority 2018, published 2020).

Assays:
liver = conditions: in vivo
[1] = laboratory test indicators, liver failure patients, TMZ 20 mg three times a day

For `COc1ccc(CN2CCNCC2)c(OC)c1OC.Cl.Cl` [TMZ, 1-[2,3,4-trimethoxybenzyl] piperazine dihydrochloride], the “30-day immortality rate of liver failure patients” value (liver failure patients; TMZ tablets 20 mg orally, three times a day, 4-week course, hospitalized liver failure patients, traditional therapeutic approach 44%) is given as “approximately 18%”, the “90-day immortality rate of liver failure patients” value (liver failure patients; TMZ tablets 20 mg orally, three times a day, 4-week course, hospitalized liver failure patients, traditional therapeutic approach 68%) is given as 35% and the “decrease rate of alanine aminotransferase” value (liver failure patients; [1]) is given as “significantly raise the decrease rate”. For the same compound, the “decrease rate of aspartate transaminase” value (liver failure patients; [1]) was “significantly raise the decrease rate”, the “maintaining liver functions and decreasing transaminase levels (alanine aminotransferase, aspartate transaminase)” value (liver failure patients; patients suffering from liver diseases and conditions, clinical research and trial results) was “significant effects in maintaining liver functions and decreasing transaminase levels” and the liver toxicity (liver) was “minimal liver toxicity”.
